The structures appear in SMILES notation.

Two compounds from patent US20060132952A1, “Enhanced data storage and retrieval devices and systems and methods for utilizing same” (priority 2002, published 2006) can be followed below.

Series [1] is described as follows: Sucrose solubility in conditioned (sodium lamp) vs control water at room temperature (22° C.). Format: physicochemical. As for the experimental part:
Beaker “II” was placed under another sodium lamp 12 as like Beaker “KK”; and Beaker “JJ” was placed in the same incubator as Beaker “LL”. […] Specifically, Beaker “GG” was placed under another sodium lamp 12 as like Beaker “KK” and Beaker “II”; and Becker “HH” was placed into the same incubator as Beaker “LL” and “II”.

Series [2] is described as follows: Phenyl salicylate solubility in conditioned (neon lamp) vs unconditioned acetone at room temperature (22° C.). Format: physicochemical. The note with it: equilibrated about 20 hours. As for the experimental part: Acetone (about 1 ml) was pipetted into small glass test tubes and stoppers placed in the tube. Tubes were placed under a neon lam; (about 8 m/cm^2) in an otherwise dark room for about 1-5 hours at about 28° C. ambient temperature. Tubes were also placed simultaneously in an incubator at 28° C. for about 1.5 hours.
Phenyl solicylate (about 3.50 grams) was added to each tube leaving a layer undissolved on the bottom of each tube. The solutions were allowed to equilibrate (about 20 hours). Solution was filtered over the crystals and 0.500 ml pipetted into fresh tubes. After the acetone evaporated, dry weights of phenyl solicylate per ml dissolved in conditioned and unconditioned acetone were determined.

With `OC[C@H]1O[C@@](CO)(O[C@H]2O[C@H](CO)[C@@H](O)[C@H](O)[C@H]2O)[C@@H](O)[C@@H]1O` [Sucrose], the “Weight (dry sucrose weight per 100 ml solution)” value in series [1] (GG, water under sodium lamp one hour, 23.5° C.) came to 49 g/100 ml; in series [1] (HH, control water 1 hour, 23° C.), 49 g/100 ml; in series [1] (II, water under sodium lamp two hours, 23.5° C.) it was 47 g/100 ml; in series [1] (JJ, control water 2 hours, 23.5° C.) it was 44 g/100 ml; in series [1] (KK, water under Na lamp three hours, 23.5° C.), 46 g/100 ml; in series [1] (LL, control water 3 hours, 23.5° C.) it was 49 g/100 ml. Further, in series [1] (two hours exposure of water to sodium lamp), the “more sucrose dissolved by conditioned water than by untreated control water” value is “about 7%”.

Regarding `O=C(Oc1ccccc1)c1ccccc1O` [phenyl salicylate], the “Average amount dissolved in unconditioned acetone” value in series [2] (acetone kept in incubator at 28° C.) was found to be 0.68 g/mL. Also, in series [2] (acetone under neon lamp), the “Average amount dissolved in conditioned acetone” value turned out to be 0.78 g/mL.
